# Laboratory results taken from PubChem BioAssay AID1259408 (Genetic Toxicology Data Bank (GENE-TOX), 2018).
# The source made the active and inactive calls. How the calls were made is not given here.
# Test system: GENE-TOX genotoxicity assays, various organisms and cells
# Assay: GENE-TOX mutagenicity studies
# Conditions: for call: Assay Type: In vivo carcinogenicity studies
# [1] = Species/Cell Type: Human lymphocytes, Assay Type: Sister-chromatid exchange (SCE) in vitro, Assay Code: SCL+D, Dose Response: With dose response, Evaluation Type: Evaluation B (Post-1980)
# [2] = Species/Cell Type: Human, Assay Type: Sister-chromatid exchange (SCE) in vitro, Assay Code: SC1+D, Dose Response: With dose response, Evaluation Type: Evaluation B (Post-1980)
# [3] = Species/Cell Type: Salmonella typhimurium (one or more of the five standard strains: TA98, TA100, TA1535, TA1537, and TA1538), Assay Type: Histidine reverse gene mutation, Ames assay, Assay Code: SAL-, Evaluation Type: Evaluation A (Pre-1980)
# [4] = Species/Cell Type: Human lymphocytes, Assay Type: Sister-chromatid exchange (SCE) in vitro, Assay Code: SCLT, Evaluation Type: Evaluation B (Post-1980)
# [5] = Species/Cell Type: Human, Assay Type: Sister-chromatid exchange (SCE) in vitro, Assay Code: SC1T, Evaluation Type: Evaluation B (Post-1980)
# [6] = Species/Cell Type: Nonhuman, Assay Type: Sister-chromatid exchange (SCE) in vitro, Assay Code: SC2+D, Dose Response: With dose response, Evaluation Type: Evaluation B (Post-1980)
# [7] = Species/Cell Type: Nonhuman, Assay Code: CCG+, Evaluation Type: Evaluation A (Pre-1980)
# [8] = Species/Cell Type: Salmonella typhimurium, Assay Type: Forward and reverse gene mutation, host-mediated assay, Assay Code: HMA-, Evaluation Type: Evaluation A (Pre-1980)
# [9] = Species/Cell Type: Human lymphocytes, Assay Type: Sister-chromatid exchange (SCE) in vitro, Assay Code: SCL+, Evaluation Type: Evaluation B (Post-1980)
# [10] = Species/Cell Type: Human, Assay Type: Sister-chromatid exchange (SCE) in vitro, Assay Code: SC1+, Evaluation Type: Evaluation B (Post-1980)
# [11] = Species/Cell Type: Mammalian polychromatic erythrocytes, Assay Type: Micronucleus test, chromosome aberrations, Assay Code: MNT+, Evaluation Type: Evaluation B (Post-1980)
compound,measurement,setting,value
Cc1c2ccccc2c(C)c2c3c(ccc12)[C@H](O)[C@@H](O)C=C3,mutagenic call,"Species/Cell Type: Chinese hamster lung (V79) cells, Assay Type: Forward gene mutation at the HPRT or ouabain locus, Assay Code: V79+, Evaluation Type: Evaluation A (Pre-1980)",active; positive
same,mutagenic call,"Species/Cell Type: Mouse prostate cells, Assay Type: Cell transformation, Assay Code: CTM+, Evaluation Type: Evaluation A (Pre-1980)",active; positive
same,call,"Species/Cell Type: Nonhuman, Assay Code: CCG+L, Evaluation Type: Evaluation A (Pre-1980)",active; positive
O=C1C=C2C(=CCOC2O)O1 (stereo not drawn),mutagenic call,"Species/Cell Type: Bacillus subtilis (H17 vs M45), Assay Type: Rec-assay, spot test, DNA effects (bacterial DNA repair), Assay Code: REW+, Evaluation Type: Evaluation A (Pre-1980)",active; positive
same,mutagenic call,[1],active; positive
same,mutagenic call,[2],active; positive
same,mutagenic call,"Species/Cell Type: Nonhuman, Assay Type: Chromosome aberrations in vitro, Assay Code: CY&+, Evaluation Type: Evaluation A (Pre-1980)",active; positive
same,call,"Species/Cell Type: Nonhuman, Assay Code: CCGT, Evaluation Type: Evaluation A (Pre-1980)",no conclusion
same,mutagenic call,"Species/Cell Type: Nonhuman, Assay Type: Sister-chromatid exchange (SCE) in vitro, Assay Code: SC2-, Evaluation Type: Evaluation B (Post-1980)",inactive; negative
same,mutagenic call,"Species/Cell Type: Rodents, Sex: Male, Assay Type: Dominant lethal test, Assay Code: DLT-, Evaluation Type: Evaluation A (Pre-1980)",inactive; negative
same,mutagenic call,"Species/Cell Type: Saccharomyces cerevisiae, Assay Type: Mitotic recombination or gene conversion, Assay Code: YEH+/-*, Activation: With metabolic activation, Evaluation Type: Evaluation A (Pre-1980)","inactive; positive without activation, negative with activation"
same,mutagenic call,[3],inactive; negative
NCCSSCCN,mutagenic call,[4],no conclusion
same,mutagenic call,[5],no conclusion
same,mutagenic call,[6],active; positive
CN(CC(=O)O)N=O,call,[7],active; positive
same,mutagenic call,[8],inactive; negative
O=[N+]([O-])c1ccc(N2CCN(c3ccccc3)CC2)c2c1no[n+]2[O-],mutagenic call,"Species/Cell Type: Salmonella typhimurium (one or more of the five standard strains: TA98, TA100, TA1535, TA1537, and TA1538), Assay Type: Histidine reverse gene mutation, Ames assay, Assay Code: SAL+, Evaluation Type: Evaluation A (Pre-1980)",active; positive
C[C@@]1(CO)[C@H](O)CC[C@@]2(C)[C@H]1CC[C@H]1C[C@@H]3C[C@@]12CC[C@]3(O)CO,mutagenic call,[9],active; positive
same,mutagenic call,[10],active; positive
same,mutagenic call,[6],active; positive
CC(C)CCC[C@@H](C)[C@H]1CC[C@H]2[C@@H]3CC=C4C[C@@H](O)CC[C@]4(C)[C@H]3CC[C@]12C,mutagenic call,"Species/Cell Type: Syrian hamster embryo (SHE) cells, Assay Type: Cell transformation, clonal assay, Assay Code: CTC-, Evaluation Type: Evaluation A (Pre-1980)",inactive; negative
NNC(=O)COc1ccc(Br)cc1CN1CCOCC1,mutagenic call,"Species/Cell Type: Saccharomyces cerevisiae, Assay Type: Reverse gene mutation, Assay Code: YERT, Evaluation Type: Evaluation A (Pre-1980)",no conclusion
Cc1c2ccncc2c(C)c2c1[nH]c1ccccc12,mutagenic call,"Species/Cell Type: Chinese hamster ovary (CHO) cells, Assay Type: Forward gene mutation at the HPRT locus, Assay Code: CHO+, Evaluation Type: Evaluation B (Post-1980)",active; positive
same,mutagenic call,"Species/Cell Type: Nonhuman, Assay Type: Sister-chromatid exchange (SCE) in vitro, Assay Code: SC2+, Evaluation Type: Evaluation B (Post-1980)",active; positive
CO[C@@]12[C@H](CO)C3=C(C(=O)C(C)=C(N)C3=O)N1C[C@@H]1N[C@@H]12,mutagenic call,[1],active; positive
same,mutagenic call,[2],active; positive
same,mutagenic call,[6],active; positive
CNNC,mutagenic call,"Species/Cell Type: Escherichia coli polA (W3119 vs P3478), Assay Type: Rec-assay, DNA effects (bacterial DNA repair), Assay Code: RE1+, Evaluation Type: Evaluation A (Pre-1980)",active; positive
same,mutagenic call,"Species/Cell Type: Escherichia coli polA (W3119 vs P3478), Assay Type: Rec-assay, DNA effects (bacterial DNA repair), Assay Code: RE1T, Evaluation Type: Evaluation A (Pre-1980)",no conclusion
same,mutagenic call,[11],active; positive
same,mutagenic call,"Species/Cell Type: Mammalian polychromatic erythrocytes, Assay Type: Micronucleus test, chromosome aberrations, Assay Code: MNTT, Evaluation Type: Evaluation A (Pre-1980)",no conclusion
same,mutagenic call,"Species/Cell Type: Mammalian polychromatic erythrocytes, Assay Type: Micronucleus test, chromosome aberrations, Assay Code: MNTT, Evaluation Type: Evaluation B (Post-1980)",no conclusion
same,call,[7],active; positive
same,mutagenic call,[6],active; positive
same,mutagenic call,"Species/Cell Type: Saccharomyces cerevisiae, Assay Type: Mitotic recombination or gene conversion, Assay Code: YEHT, Evaluation Type: Evaluation A (Pre-1980)",no conclusion
same,mutagenic call,[3],inactive; negative
same,mutagenic call,"Species/Cell Type: Salmonella typhimurium, Assay Type: Forward and reverse gene mutation, body fluid assay, Assay Code: BFU-, Evaluation Type: Evaluation A (Pre-1980)",inactive; negative
same,mutagenic call,"Species/Cell Type: Salmonella typhimurium, Assay Type: Forward and reverse gene mutation, host-mediated assay, Assay Code: HMA+, Evaluation Type: Evaluation A (Pre-1980)",active; positive
same,mutagenic call,"Species/Cell Type: Syrian hamster embryo (SHE) cells, Assay Type: Cell transformation, clonal assay, Assay Code: CTCT, Evaluation Type: Evaluation A (Pre-1980)",no conclusion
Cc1c(C2(c3cc(C(C)C)c(O)c(Br)c3C)OS(=O)(=O)c3ccccc32)cc(C(C)C)c(O)c1Br,mutagenic call,"Species/Cell Type: Bacillus subtilis (H17 vs M45), Assay Type: Rec-assay, spot test, DNA effects (bacterial DNA repair), Assay Code: REWT, Evaluation Type: Evaluation A (Pre-1980)",no conclusion
O=S(O)S(=O)O,mutagenic call,[4],no conclusion
same,mutagenic call,[5],no conclusion
F,mutagenic call,"Species/Cell Type: Allium cepa, Assay Type: Chromosome aberrations, Assay Code: ALC+D, Dose Response: With dose response, Evaluation Type: Evaluation A (Pre-1980)",active; positive
same,mutagenic call,"Species/Cell Type: Drosophila melanogaster, Assay Type: Aneuploidy, partial sex chromosome loss, chromosome aberrations, Assay Code: DAPT, Evaluation Type: Evaluation A (Pre-1980)",no conclusion
same,mutagenic call,"Species/Cell Type: Drosophila melanogaster, Assay Type: Aneuploidy, sex chromosome gain, chromosome aberrations, Assay Code: DAG-F, Evaluation Type: Evaluation A (Pre-1980)",inactive; negative
same,mutagenic call,"Species/Cell Type: Drosophila melanogaster, Assay Type: Aneuploidy, whole sex chromosome loss, chromosome aberrations, Assay Code: DAC+M, Evaluation Type: Evaluation A (Pre-1980)",active; positive
same,mutagenic call,"Species/Cell Type: Drosophila melanogaster, Assay Type: Sex-linked recessive lethal gene mutation, Assay Code: SRL+, Evaluation Type: Evaluation A (Pre-1980)",active; positive
same,mutagenic call,"Species/Cell Type: Drosophila melanogaster, Assay Type: Sex-linked recessive lethal gene mutation, Assay Code: SRLT, Evaluation Type: Evaluation A (Pre-1980)",no conclusion
same,mutagenic call,[9],active; positive
same,mutagenic call,[4],no conclusion
same,mutagenic call,[10],active; positive
same,mutagenic call,[5],no conclusion
same,mutagenic call,[11],active; positive
same,mutagenic call,"Species/Cell Type: Neurospora crassa, Assay Type: Aneuploidy, chromosome aberrations, Assay Code: NEN-, Evaluation Type: Evaluation A (Pre-1980)",inactive; negative
same,mutagenic call,"Species/Cell Type: Nonhuman lymphocytes or leukocytes, Assay Type: Chromosome aberrations in vivo, Assay Code: CY%-, Evaluation Type: Evaluation A (Pre-1980)",inactive; negative
same,mutagenic call,"Species/Cell Type: Nonhuman, Assay Type: Sister-chromatid exchange (SCE) in vivo, Assay Code: SC3-, Evaluation Type: Evaluation A (Pre-1980)",inactive; negative
same,mutagenic call,"Species/Cell Type: Nonhuman, Assay Type: Sister-chromatid exchange (SCE) in vivo, Assay Code: SC3T, Evaluation Type: Evaluation B (Post-1980)",no conclusion
same,mutagenic call,"Species/Cell Type: Saccharomyces cerevisiae, Assay Type: Mitotic recombination or gene conversion, Assay Code: YEC-, Evaluation Type: Evaluation A (Pre-1980)",inactive; negative
same,mutagenic call,"Species/Cell Type: Salmonella typhimurium (one or more of the five standard strains: TA98, TA100, TA1535, TA1537, and TA1538), Assay Type: Histidine reverse gene mutation, Ames assay, Assay Code: SALT, Evaluation Type: Evaluation A (Pre-1980)",no conclusion
[Se],mutagenic call,[1],active; positive
same,mutagenic call,[2],active; positive
Cc1c2c(c(C)c3ccccc13)C(O)C(O)c1ccccc1-2 (stereo not drawn),mutagenic call,"Species/Cell Type: Chinese hamster lung (V79) cells, Assay Type: Forward gene mutation at the HPRT or ouabain locus, Assay Code: V79-*, Activation: With metabolic activation, Evaluation Type: Evaluation A (Pre-1980)",inactive; negative
O[C@H]1[C@H]2c3cc4c(cc3CN3CCC(=C[C@@H]1O)[C@H]23)OCO4,mutagenic call,[11],active; positive
CCC1(c2ccccc2)C(=O)NC(=O)N(C(=O)c2ccccc2)C1=O (stereo not drawn),mutagenic call,"Species/Cell Type: Rodents, Sex: Male, Assay Type: Dominant lethal test, Assay Code: DLTT, Evaluation Type: Evaluation A (Pre-1980)",no conclusion
same,mutagenic call,[8],inactive; negative
O=[N+]([O-])c1ccc(-c2csc(Cl)n2)o1,mutagenic call,"Species/Cell Type: Escherichia coli WP2, Assay Type: Tryptophan reverse gene mutation, Assay Code: WP2+, Evaluation Type: Evaluation A (Pre-1980)",active; positive
same,mutagenic call,"Species/Cell Type: Escherichia coli WP2 UVRA, Assay Type: Tryptophan reverse gene mutation, Assay Code: WPU+, Evaluation Type: Evaluation A (Pre-1980)",active; positive
